PubChem BioAssay (NCI)
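Results reflect a 48-hour exposure of cells in 96-well plates to compound at five concentrations. At the TGI there is no net growth.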

Key:
Assay in all cases: NCI anticancer screen, dose series, 48 h
SF-295 CNS = test system: SF-295 CNS
COLO 205 colon = test system: COLO 205 colon
ACHN renal = test system: ACHN renal
M14 melanoma = test system: M14 melanoma
IGROV1 ovarian = test system: IGROV1 ovarian
EKVX NSCLC = test system: EKVX NSCLC
DMS 273 small cell lung = test system: DMS 273 small cell lung
SK-MEL-2 melanoma = test system: SK-MEL-2 melanoma
RXF 393 renal = test system: RXF 393 renal
KM12 colon = test system: KM12 colon

SMILES | TGI (SF-295 CNS) [µM] | TGI (COLO 205 colon) [µM] | TGI (ACHN renal) [µM] | TGI (M14 melanoma) [µM] | TGI (IGROV1 ovarian) [µM] | TGI (EKVX NSCLC) [µM] | TGI (DMS 273 small cell lung) [µM] | TGI (SK-MEL-2 melanoma) [µM] | TGI (RXF 393 renal) [µM] | TGI (KM12 colon) [µM]
O=C(O)c1cc(Cl)cc(NC(=O)C(Cl)Cl)c1Cl | > 100 | > 100 | > 100 | > 100 | > 100 | > 100 | > 100 | > 100 | > 100 | > 100
Cn1c(=O)c2c3oc(=O)cc(O)c3c(=O)n3c4ccccc4n(c1=O)c23 | > 100 | 72.6 | > 100 | > 100 | > 100 | > 100 | > 100 | 69 | > 100 | > 100
CC1=CC2=C(C)C3(CC3)[C@@](C)(O)C(=O)C2=C1 | 0.571 | 0.584 | 0.379 | 0.393 | > 0.979 | 0.992 | 0.696 | 0.365 | 0.246 | > 0.918
COC(=O)c1c(C)oc2ccc(OC(C)=O)cc12 | > 100 | > 100 | > 100 | > 100 | > 100 | > 100 | > 100 | > 100 | > 100 | > 100
O=C(CCCCCCCCCCc1ccccc1)c1c(O)cccc1O | 47 | 56.5 | 69.9 | 35.6 | 60.5 | 48.7 | 34 | 31.3 | 39.9 | 33.2
COc1cc2c3c(c1OC)-c1ccccc1C(C(OC(C)=O)c1ccccc1)C3N(C)CC2 (stereo not given) | > 100 | > 100 | > 100 | > 100 | > 100 | > 100 | > 100 | 83.7 | > 100 | > 100
COc1ccc2cccc(C(=N)c3ccc(C)c4c3CCC4)c2c1 | 17.7 | 25.9 | 21.7 | 18.6 | 19.2 | 30.1 | 21.2 | 24.4 | 26.3 | 22.9
N#Cc1c2c(c(N=[N+]=[N-])n3c1nc1ccccc13)CCCC2 | 4.94 | 13.1 | 5.46 | 3.48 | 6.56 | 30.9 | 6.52 | 3.58 | 3.19 | 5.53
c1ccc(SCCCC(Sc2ccccc2)Sc2ccccc2)cc1 | > 100 | > 100 | > 100 | > 100 | > 100 | > 100 | > 100 | > 100 | > 100 | > 100
CC1OC(=O)N(CCCC=C2SCCCS2)C1=O (stereo not given) | > 100 | > 100 | > 100 | > 100 | > 100 | > 100 | > 100 | > 100 | > 100 | > 100
Brc1ccc2c(c1)C1(c3cc(Br)ccc3-2)c2cc(Br)ccc2-c2ccc(Br)cc21 | > 100 | > 100 | > 100 | > 100 | > 100 | > 100 | > 100 | > 100 | > 100 | > 100
Cc1cc(N(CCC#N)S(=O)(=O)c2ccccc2)ccc1C=O | > 100 | > 100 | > 100 | > 100 | > 100 | > 100 | > 100 | > 100 | > 100 | > 100
